Measured values published in article PMC4457528, “Identification of Novel Small Molecule Inhibitors of Oncogenic RET Kinase” (PLoS ONE, 2015).
Read-outs that look alike come from different tables or passages of the source.

Columns and labels:
KinomeScan kinase panel [1] = molecular target: T1, KinomeScan kinase panel (Homo sapiens, UniProt P54646); experiment: KinomeScan kinase panel, single concentration 10 µM; type: binding; conditions: AMPK-alpha2, 10 µM; read-out: score (%)
T1 construct: purchased DiscoveRx (KinomeScan)

KinomeScan kinase panel [2] = molecular target: T2, KinomeScan kinase panel (Homo sapiens, UniProt P51817); experiment: as above; type: binding; conditions: 10 µM, read-out: score (%)
T2 construct: purchased DiscoveRx (KinomeScan)
T2 sequence (P51817 1-358): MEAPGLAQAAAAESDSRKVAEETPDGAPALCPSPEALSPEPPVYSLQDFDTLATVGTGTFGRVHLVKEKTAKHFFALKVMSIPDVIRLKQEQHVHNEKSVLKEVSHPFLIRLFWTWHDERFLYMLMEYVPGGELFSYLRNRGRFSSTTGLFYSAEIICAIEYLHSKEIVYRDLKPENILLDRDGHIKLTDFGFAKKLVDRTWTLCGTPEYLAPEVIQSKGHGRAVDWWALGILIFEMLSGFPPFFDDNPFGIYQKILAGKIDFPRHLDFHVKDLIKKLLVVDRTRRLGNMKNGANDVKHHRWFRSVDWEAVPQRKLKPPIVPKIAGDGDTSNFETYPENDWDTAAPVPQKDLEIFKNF

KinomeScan kinase panel [3] = molecular target: T3, KinomeScan kinase panel (Homo sapiens, UniProt P29323); experiment: as above; type: binding; conditions: EPHB2, 10 µM
T3 construct: purchased DiscoveRx (KinomeScan)
T3 sequence (P29323 19-1055): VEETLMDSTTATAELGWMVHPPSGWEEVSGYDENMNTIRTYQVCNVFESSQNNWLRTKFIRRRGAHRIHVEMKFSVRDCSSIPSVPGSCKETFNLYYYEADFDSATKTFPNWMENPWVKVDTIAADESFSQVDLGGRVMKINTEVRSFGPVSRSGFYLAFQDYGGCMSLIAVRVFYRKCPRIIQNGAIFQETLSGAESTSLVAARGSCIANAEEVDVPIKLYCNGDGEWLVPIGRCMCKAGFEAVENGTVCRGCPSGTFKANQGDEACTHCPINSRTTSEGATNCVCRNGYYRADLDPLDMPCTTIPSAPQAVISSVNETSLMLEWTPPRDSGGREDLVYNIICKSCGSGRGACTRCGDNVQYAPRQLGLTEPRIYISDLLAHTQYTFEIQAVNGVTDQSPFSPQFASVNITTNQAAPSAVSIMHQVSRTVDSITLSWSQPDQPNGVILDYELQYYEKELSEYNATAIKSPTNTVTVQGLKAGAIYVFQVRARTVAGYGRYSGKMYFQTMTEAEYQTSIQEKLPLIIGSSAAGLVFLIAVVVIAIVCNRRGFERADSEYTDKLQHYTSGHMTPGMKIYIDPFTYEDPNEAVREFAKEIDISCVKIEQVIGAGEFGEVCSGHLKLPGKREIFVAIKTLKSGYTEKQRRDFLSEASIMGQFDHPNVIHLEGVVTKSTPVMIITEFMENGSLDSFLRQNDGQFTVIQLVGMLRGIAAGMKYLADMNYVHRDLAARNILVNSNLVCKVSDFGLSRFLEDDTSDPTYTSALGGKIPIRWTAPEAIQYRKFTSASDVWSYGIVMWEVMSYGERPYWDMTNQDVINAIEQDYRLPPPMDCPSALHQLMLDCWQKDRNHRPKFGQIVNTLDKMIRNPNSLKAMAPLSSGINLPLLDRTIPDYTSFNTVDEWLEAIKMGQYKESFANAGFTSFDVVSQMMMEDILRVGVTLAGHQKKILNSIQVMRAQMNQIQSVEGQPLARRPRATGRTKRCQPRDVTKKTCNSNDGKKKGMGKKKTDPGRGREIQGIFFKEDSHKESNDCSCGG

KinomeScan kinase panel [4] = molecular target: T4, KinomeScan kinase panel (Homo sapiens, UniProt Q9P0L2); experiment: as above; type: binding; conditions: MARK1, 10 µM; read-out: score (%)
T4 construct: purchased DiscoveRx (KinomeScan)

KinomeScan kinase panel [5] = molecular target: T5, KinomeScan kinase panel (Homo sapiens, UniProt O00444); experiment: as above; type: binding; conditions: read-out: score (%)
T5 construct: purchased DiscoveRx (KinomeScan)
T5 sequence (O00444 1-970): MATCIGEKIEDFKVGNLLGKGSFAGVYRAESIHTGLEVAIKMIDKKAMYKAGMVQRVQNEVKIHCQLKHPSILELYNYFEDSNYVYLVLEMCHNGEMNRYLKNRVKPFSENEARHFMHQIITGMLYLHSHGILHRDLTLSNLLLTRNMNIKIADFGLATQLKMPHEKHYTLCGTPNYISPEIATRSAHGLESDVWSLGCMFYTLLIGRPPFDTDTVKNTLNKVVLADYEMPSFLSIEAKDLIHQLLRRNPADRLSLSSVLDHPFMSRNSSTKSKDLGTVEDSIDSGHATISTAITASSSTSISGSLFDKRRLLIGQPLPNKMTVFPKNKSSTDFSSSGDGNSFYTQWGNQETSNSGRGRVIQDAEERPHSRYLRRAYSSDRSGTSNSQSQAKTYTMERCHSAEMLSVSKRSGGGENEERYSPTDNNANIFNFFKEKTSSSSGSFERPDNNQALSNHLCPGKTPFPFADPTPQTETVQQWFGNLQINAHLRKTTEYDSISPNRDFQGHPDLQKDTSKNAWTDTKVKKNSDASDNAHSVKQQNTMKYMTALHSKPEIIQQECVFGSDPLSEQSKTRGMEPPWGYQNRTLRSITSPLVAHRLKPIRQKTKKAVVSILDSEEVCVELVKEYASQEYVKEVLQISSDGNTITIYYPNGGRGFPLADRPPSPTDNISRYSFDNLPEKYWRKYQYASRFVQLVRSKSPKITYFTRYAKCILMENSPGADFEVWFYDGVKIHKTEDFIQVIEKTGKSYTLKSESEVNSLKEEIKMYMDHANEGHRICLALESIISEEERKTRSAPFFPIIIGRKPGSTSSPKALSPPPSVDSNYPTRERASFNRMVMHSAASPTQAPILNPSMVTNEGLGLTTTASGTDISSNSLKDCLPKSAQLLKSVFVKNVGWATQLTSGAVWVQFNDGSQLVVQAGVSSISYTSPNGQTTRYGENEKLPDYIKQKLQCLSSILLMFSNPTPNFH

RAT1 cells = experiment: Growth curves, parental RAT1 cells; type: cell-based, rat; conditions: low serum
Experimental: To compare cell growth, we performed unpaired Student’s t test using the Instat software program (Graphpad Software Inc). P values were two-sided, and differences were considered statistically significant at P <.02. IC50 doses were calculated through a curve fitting analysis from last day values using the PRISM software program (Graphpad Software Inc).

T1 sequence (P54646 whole entry): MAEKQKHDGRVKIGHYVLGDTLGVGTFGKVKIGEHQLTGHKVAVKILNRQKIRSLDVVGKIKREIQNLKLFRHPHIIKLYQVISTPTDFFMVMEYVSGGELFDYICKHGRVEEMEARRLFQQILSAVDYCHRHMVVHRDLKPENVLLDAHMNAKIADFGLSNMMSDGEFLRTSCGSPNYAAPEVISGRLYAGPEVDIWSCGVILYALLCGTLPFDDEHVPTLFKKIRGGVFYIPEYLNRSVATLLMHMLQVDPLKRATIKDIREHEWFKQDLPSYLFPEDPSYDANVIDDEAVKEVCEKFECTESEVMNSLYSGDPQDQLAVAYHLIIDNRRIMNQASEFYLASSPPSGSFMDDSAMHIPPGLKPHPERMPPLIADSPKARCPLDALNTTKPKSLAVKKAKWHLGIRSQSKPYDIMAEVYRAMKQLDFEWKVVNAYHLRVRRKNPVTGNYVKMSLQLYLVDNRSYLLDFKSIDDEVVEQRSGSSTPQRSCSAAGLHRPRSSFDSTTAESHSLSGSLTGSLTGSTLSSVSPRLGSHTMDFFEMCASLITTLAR
T4 sequence (Q9P0L2 whole entry): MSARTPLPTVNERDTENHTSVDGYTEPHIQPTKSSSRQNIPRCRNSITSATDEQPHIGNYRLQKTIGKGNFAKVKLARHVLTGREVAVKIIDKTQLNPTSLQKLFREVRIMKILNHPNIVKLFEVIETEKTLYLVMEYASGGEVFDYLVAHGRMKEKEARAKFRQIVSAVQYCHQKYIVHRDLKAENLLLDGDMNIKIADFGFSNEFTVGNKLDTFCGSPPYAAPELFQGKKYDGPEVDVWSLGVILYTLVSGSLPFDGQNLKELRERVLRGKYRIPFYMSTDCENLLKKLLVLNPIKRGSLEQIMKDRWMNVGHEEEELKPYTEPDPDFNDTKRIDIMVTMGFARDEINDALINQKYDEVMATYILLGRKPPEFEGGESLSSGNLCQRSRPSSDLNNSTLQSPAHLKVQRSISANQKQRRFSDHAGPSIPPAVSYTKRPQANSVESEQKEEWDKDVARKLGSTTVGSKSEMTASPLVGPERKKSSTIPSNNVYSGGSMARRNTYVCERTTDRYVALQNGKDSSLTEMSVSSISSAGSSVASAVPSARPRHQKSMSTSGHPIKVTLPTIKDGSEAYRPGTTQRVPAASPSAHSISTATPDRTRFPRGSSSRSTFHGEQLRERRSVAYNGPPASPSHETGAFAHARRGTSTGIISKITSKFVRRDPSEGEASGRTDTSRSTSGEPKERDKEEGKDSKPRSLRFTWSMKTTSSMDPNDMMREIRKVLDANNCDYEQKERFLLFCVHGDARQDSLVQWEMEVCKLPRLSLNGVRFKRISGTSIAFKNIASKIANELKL

SMILES	remaining binding at 10 µM (KinomeScan kinase panel [1])	remaining binding at 10 µM (KinomeScan kinase panel [2]; PRKX)	score (%) (KinomeScan kinase panel [3])	remaining binding at 10 µM (KinomeScan kinase panel [4])	remaining binding at 10 µM (KinomeScan kinase panel [5]; PLK4, 10 µM)	Growth inhibition IC50 dose: RAT1 (RAT1 cells)	remaining binding at 10 µM (KinomeScan kinase panel [2]; kinase PRKX)	remaining binding at 10 µM (KinomeScan kinase panel [5]; kinase PLK4, 10 µM)
CCN1CCN(Cc2ccc(NC(=O)c3ccc(C)c(NC(=O)c4cncc(-c5cccs5)c4)c3)cc2C(F)(F)F)CC1 [ALW-II-41-27]	> 30%	> 30%	0%	> 30%	> 30%	Not measurable		
CCN1CCN(Cc2ccc(NC(=O)c3ccc(C)c(/C=C/c4cnc5[nH]ccc5c4Cl)c3)cc2C(F)(F)F)CC1 [HG-6-63-01, (E)-3-(2-(4-chloro-1H-pyrrolo[2,3-b]pyridin-5-yl)vinyl)-N-(4-((4-ethylpiperazin-1-yl)methyl)-3-(trifluoromethyl)phenyl)-4-methylbenzamide]	> 30%	> 30%	1.1%	> 30%	> 30%	Not measurable		
CCN1CCN(Cc2ccc(NC(=O)c3ccc(C)c(C#Cc4cccnc4)c3)cc2C(F)(F)F)CC1 [XMD15-44]	18%		0.1%	> 30%		Not measurable	3.6%	88%
